In this assay the target is T1, CRF-1 (UniProt P34998).
T1 sequence (P34998 1-415): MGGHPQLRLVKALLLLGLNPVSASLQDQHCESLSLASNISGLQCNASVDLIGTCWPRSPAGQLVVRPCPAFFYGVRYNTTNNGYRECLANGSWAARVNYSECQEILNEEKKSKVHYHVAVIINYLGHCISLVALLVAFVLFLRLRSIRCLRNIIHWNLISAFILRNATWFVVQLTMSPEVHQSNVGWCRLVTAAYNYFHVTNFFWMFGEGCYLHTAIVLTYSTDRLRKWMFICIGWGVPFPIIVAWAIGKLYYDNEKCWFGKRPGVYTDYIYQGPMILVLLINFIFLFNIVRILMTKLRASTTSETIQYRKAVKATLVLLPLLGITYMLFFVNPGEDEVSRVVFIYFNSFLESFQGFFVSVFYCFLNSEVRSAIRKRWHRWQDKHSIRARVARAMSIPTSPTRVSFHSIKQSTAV
Put plainly: CRF-1 receptor antagonism, HTRF cAMP assay in CHO cells. It is filed as cell-based, human. Conditions: Biological data Table 1; inhibition of CRF induced cAMP response in CHO cells, EC50 concentration of CRF. On the procedure:
The CRF-1 and CRF-2 receptor antagonistic activity of the agents of the invention has been determined in vitro in the following assay:
Chinese hamster ovary (CHO) cells expressing either the human or rat recombinant CRF-1 or human CRF-2α (Chen et al, Proc Natl Acad Sci USA 90, 8967-8971, 1993; Liaw et al, Endocrinology 137, 72-77, 1996) are propagated in Dulbecco's modified Eagle medium supplemented with 10% foetal calf serum, non-essential amino acids, 100 U/ml penicillin, 100 mg/l streptomycin and 1 g/l geneticin. CHO cells expressing the rat CRF-2β receptor (Wu et al, Endocrinology 148, 1675-1687, 2007) are propagated in HAM's-F12 Glutamax supplemented with 10% foetal calf serum, 100 IU/ml penicillin, 100 mg/l streptomycin, 600 μg/ml hygromycin, 10 μg/ml blasticidin and induced with 1 μg/ml of tetracyclin for 24 hours prior to experimentation. For cyclic AMP determinations the Homogeneous Time-Resolved Fluoresce (HTRF) cAMP dynamic 2 kit (Cisbio International, France) was used as per manufacturers' instructions. CHO cells, previously cryopreserved at 3×10^6 viable cells per ml of cell recovery media (Cat no. 12648-010, Invitrogen), were thawed, centrifuged for 7 mins at 1200 rpm and resuspended in serum free media to give a concentration of 0.5×10^6 cells per/ml. Compounds of the invention, prepared in DMSO, and subsequently diluted 50 fold in assay buffer (1× Hanks balanced salt solution, 0.2% (w/v) bovine serum albumin, 1.7 mM isobutylmethylxanthine and 10 mM Hepes, pH7.4) were then added onto the 384 well low volume black assay plate (Corning Inc, US, Cat. 3676). 2000 cells/well were then added to the assay plate further diluting the compound 2 fold and then the plate was incubated for 15 mins at room temperature. Following incubation, buffer containing a 5 times final concentration of agonist, typically r/h CRF is added to the plate and incubated for 30 min at room temperature. Finally, d2 dye labeled cAMP and cryptate labeled anti-cAMP antibody, both made in lysis buffer, are added to the plate followed by a settling period of 1 hour at room temperature. During the settling period cAMP produced by the cells competes with the d2 labelled cAMP for the anti-cAMP cryptate. The plate is read on the Pherastar (BMG, Germany). Increasing levels of endogenous cAMP produced by cells can be followed by a decrease of FRET fluorescent signal and vice versa. Values represented by a change in arbitrary fluorescence units are converted into cAMP concentrations by use of a standard curve, the reagents for which are supplied with the kit. Antagonist dose response curves (1 nM-31.6 μM) are constructed and tested in the presence of an EC50 concentration of CRF relevant to the receptor (hCRF-1=3 nM, hCRF-2α=2 nM, rCRF-1=1 nM and rCRF-2β=0.1 nM). IC50 values of antagonists are calculated by fitting the percent inhibition of CRF induced cAMP response by increasing concentrations of the antagonists. The fit is performed using the nonlinear logistic function of the Activitybase software package v 5.4.5.27 (IDBS, UK).
For orientation: In TR-FRET formats the signal depends on donor and acceptor labels being close together.

pIC50: −log10 of the molar value. Counter-ions that a name gives are not always drawn.

What is called pIC50 is the negative decadic logarithm of the IC50, by convention in mol/L. Read a high pIC50 as a low IC50.

`O=C(N[C@H]1CC[C@H](CN2C(=O)Cc3ccc(Cl)cc32)CC1)c1cc(C(F)(F)F)ccc1Cl` [Example 1.1, Trans-2-Chloro-N-[4-(6-chloro-2-oxo-2,3-dihydro-indol-1-ylmethyl)-cyclohexyl]-5-trifluoromethyl-benzamide] had a pIC50 of 7.19. Take `O=C(N[C@H]1CC[C@H](CN2C(=O)C(F)(F)c3ccc(Cl)cc32)CC1)c1cc(C(F)(F)F)ccc1Cl` [Example 2.1, Trans-2-chloro-N-[4-(6-chloro-3,3-difluoro-2-oxo-2,3-dihydro-indol-1-ylmethyl)-cyclohexyl]-5-trifluoromethyl-benzamide]: the pIC50 is 6.83. Regarding `Cc1ncc(Cl)cc1C(=O)N[C@H]1CC[C@H](CN2C(=O)C(C)(C)c3cccnc32)CC1` [Example 2.3, Trans-5-chloro-N-[4-(3,3-dimethyl-2-oxo-2,3-dihydro-pyrrolo[2,3-b]pyridin-1-ylmethyl)-cyclohexyl]-2-methyl-nicotinamide], the pIC50 was 6.62. The compound `O=C(N[C@H]1CC[C@H](CN2C(=O)Cc3cccnc32)CC1)c1cc(C(F)(F)F)ccc1Cl` [Example 2.4, Trans-2-chloro-N-[4-(2-oxo-2,3-dihydro-pyrrolo[2,3-b]pyridin-1-ylmethyl)-cyclohexyl]-5-trifluoromethyl-benzamide] gave a pIC50 of 6.05. `O=C(N[C@H]1CC[C@H](CN2C(=O)C3(CC3)c3cc(F)ccc32)CC1)c1cc(C(F)(F)F)ccc1Cl` [Example 2.5, Trans-2-chloro-N-{-4-((5′-fluoro-2′-oxospiro[cyclopropane-1,3′-indoline]-1′-yl)methyl)cyclohexyl}-5-(trifluoromethyl)benzamide] had a pIC50 of 8.05. `COc1ccc2c(c1)C(C)(C)C(=O)N2C[C@H]1CC[C@H](NC(=O)c2cc(C(F)(F)F)ccc2Cl)CC1` [Example 2.7, Trans-2-Chloro-N-[4-(5-methoxy-3,3-dimethyl-2-oxo-2,3-dihydro-indol-1-ylmethyl)-cyclohexyl]-5-trifluoromethyl-benzamide]: the pIC50 was 6.78. `COc1cc2c(cn1)C(C)(C)C(=O)N2C[C@H]1CC[C@H](NC(=O)c2cc(C(F)(F)F)ccc2Cl)CC1` [Example 2.8, Trans-2-Chloro-N-[4-(6-methoxy-3,3-dimethyl-2-oxo-2,3-dihydro-pyrrolo[3,2-c]pyridin-1-ylmethyl)-cyclohexyl]-5-trifluoromethyl-benzamide] had a pIC50 of 6.46. Compared with the last compound, the pIC50 is 0.32 log units lower. In turn, `C[C@]1(F)C(=O)N(C[C@H]2CC[C@H](NC(=O)c3cc(C(F)(F)F)ccc3Cl)CC2)c2ccccc21` [Example 2.9, Trans-2-Chloro-N-[4-((R)-3-fluoro-3-methyl-2-oxo-2,3-dihydro-indol-1-ylmethyl)-cyclohexyl]-5-trifluoromethyl-benzamide] gave a pIC50 of 7.80. Compared with the last compound, the pIC50 is 1.34 log units higher. Under `C[C@@]1(F)C(=O)N(C[C@H]2CC[C@H](NC(=O)c3cc(C(F)(F)F)ccc3Cl)CC2)c2ccccc21` [Example 2.10, Trans-2-Chloro-N-[4-((S)-3-fluoro-3-methyl-2-oxo-2,3-dihydro-indol-1-ylmethyl)-cyclohexyl]-5-trifluoromethyl-benzamide] stands 6.70. As to `CCn1c(=O)n(C[C@H]2CC[C@H](NC(=O)c3cc(Cl)cnc3C)CC2)c2ccncc21` [Example 2.42, Trans-5-Chloro-N-[4-(3-ethyl-2-oxo-2,3-dihydro-imidazo[4,5-c]pyridin-1-ylmethyl)-cyclohexyl]-2-methyl-nicotinamide], the pIC50 is 6.56. This pIC50 and that of the compound before are within 0.2 log units of each other. `Cc1ncc(Cl)cc1C(=O)N[C@H]1CC[C@H](Cn2c(=O)n(C)c3nccc(C)c32)CC1` [Example 2.43, Trans-5-Chloro-N-[4-(3,7-dimethyl-2-oxo-2,3-dihydro-imidazo[4,5-b]pyridin-1-ylmethyl)-cyclohexyl]-2-methyl-nicotinamide] had a pIC50 of 6.38.

As to `Cc1ncc(C(F)(F)F)cc1C(=O)N[C@H]1CC[C@H](CN2C(=O)C(C)(C)c3ccccc32)CC1` [Example 2.52, Trans-N-[4-(3,3-Dimethyl-2-oxo-2,3-dihydro-indol-1-ylmethyl)-cyclohexyl]-2-methyl-5-trifluoromethyl-nicotinamide], the pIC50 is 6.21.

In turn, `O=C(N[C@H]1CC[C@H](CN2C(=O)Cc3cc(Cl)ccc32)CC1)c1cc(C(F)(F)F)ccc1Cl` [Example 3.1, Trans-2-Chloro-N-[4-(5-chloro-2-oxo-2,3-dihydro-indol-1-ylmethyl)-cyclohexyl]-5-trifluoromethyl-benzamide] showed a pIC50 of 6.69.

Take `CC1(C)C(=O)N(C[C@H]2CC[C@H](NC(=O)c3cc(C(F)(F)F)ccc3Cl)CC2)c2ccc(F)cc21` [Example 3.3, Trans-2-Chloro-N-[4-(5-fluoro-3,3-dimethyl-2-oxo-2,3-dihydro-indol-1-ylmethyl)-cyclohexyl]-5-trifluoromethyl-benzamide]: the pIC50 was 7.55. In the case of `Cn1c(=O)n(C[C@H]2CC[C@H](NC(=O)c3cc(C(F)(F)F)ccc3Cl)CC2)c2ncccc21` [Example 3.6, Trans-2-Chloro-N-[4-(1-methyl-2-oxo-1,2-dihydro-imidazo[4,5-b]pyridin-3-ylmethyl)-cyclohexyl]-5-trifluoromethyl-benzamide], the pIC50 was 6.84. This pIC50 is 0.71 log units lower than that of the compound before.

Compound `O=C(N[C@H]1CC[C@H](Cn2c(=O)[nH]c3ccccc32)CC1)c1cc(C(F)(F)F)ccc1Cl` [Example 3.7, Trans-2-Chloro-N-[4-(2-oxo-2,3-dihydro-bcnzoimidazol-1-ylmethyl)-cyclohexyl]-5-trifluoromethyl-benzamide] gave a pIC50 of 7.04. For the compound `Cn1c(=O)n(C[C@H]2CC[C@H](NC(=O)c3cc(C(F)(F)F)ccc3Cl)CC2)c2ccccc21` [Example 3.8, Trans-2-Chloro-N-[4-(3-methyl-2-oxo-2,3-dihydro-benzoimidazol-1-ylmethyl)-cyclohexyl]-5-trifluoromethyl-benzamide], the pIC50 is 7.43. Against the preceding compound, the pIC50 is 0.39 log units higher. `Cn1c(=O)n(C[C@H]2CC[C@H](NC(=O)c3cc(Cl)ccc3Cl)CC2)c2ccccc21` [Example 4.2, Trans-2,5-Dichloro-N-[4-(3-methyl-2-oxo-2,3-dihydro-benzoimidazol-1-ylmethyl)-cyclohexyl]-benzamide trifluoroacetate] showed a pIC50 of 6.93. `CC1(C)C(=O)N(C[C@H]2CC[C@H](NC(=O)c3cc(Cl)ccc3Cl)CC2)c2ccccc21` [Example 5.2, Trans-2,5-Dichloro-N-[4-(3,3-dimethyl-2-oxo-2,3-dihydro-indol-1-ylmethyl)-cyclohexyl]-benzamide] gave a pIC50 of 6.90.

These data come from patent publication US20110201629A1, “CYCLOHEXYL AMIDE DERIVATIVES AS CRF RECEPTOR ANTAGONISTS” (priority 2010, published 2011).
